# Measurements reported in US10039772B2, “Methods and compositions for treating alcohol use disorders” (priority 2015, dated 2018).
# Where a name gives a salt, the structure may show the parent alone.
# Test system: C57BL/6J mice
# Test: Mouse drinking in the dark (DID) binge-like drinking
# Assay type: in vivo
# Conditions: first 2 h vs whole 4 h session
# Experimental: The DID paradigm capitalizes on the circadian rhythm in drinking of mice utilizing a discrete time of exposure to ethanol to obtain pharmacologically significant ethanol drinking in a four-day procedure (114, 115). It is considered a preclinical model of binge alcohol drinking (116). Blood ethanol levels of C57BL/6J mice in DID are reliably over 100 mg % following the final drinking bout and produce behavioral intoxication in C57BL/6J mice (115). In the DID paradigm, the water bottle is replaced with a bottle containing 20% ethanol for 2 hours in the home cage 3 hours after lights go off. The design involves 3 daily drinking sessions of 2 hours and a fourth of 4 hours (114, 115).
row,Compound,time course of the effect on ethanol intake within the DID session
1,"CC1(C)[C@@H](OC(=O)CCC(=O)O)CC[C@]2(C)[C@H]3C(=O)C=C4[C@@H]5C[C@@](C)(C(=O)O)CC[C@]5(C)CC[C@@]4(C)[C@]3(C)CC[C@@H]12 [Number 4, 18α-glycyrrhetinic acid 3β-O-hemisuccinate]",more pronounced in the first 2 hours

# Same assay, conditions: mice, 4 h drinking session, vs saline vehicle
row,Compound,ethanol intake in the DID paradigm
1,"CC1(C)[C@@H](OC(=O)CCC(=O)O)CC[C@]2(C)[C@H]3C(=O)C=C4[C@@H]5C[C@@](C)(C(=O)O)CC[C@]5(C)CC[C@@]4(C)[C@]3(C)CC[C@@H]12 [Number 4, 18α-glycyrrhetinic acid 3β-O-hemisuccinate]",reduce

# Test system: alcohol dependent and nondependent Wistar rats
# Test: Rat operant self-administration of alcohol (dependent and nondependent rats)
# Assay type: in vivo
# Conditions: acute, systemic administration
# Experimental: Self-administration sessions were conducted in standard operant conditioning chambers (Med Associates). The rats were trained to self-administer alcohol as previously reported (13). First, the rats were given free-choice access to alcohol (10% w/v) and water for 1 day in their home cages to habituate them to the taste of alcohol. Second, the rats were subjected to an overnight session in the operant chambers with access to one lever (right lever) that delivered water in a fixed-ratio 1 (FR1) schedule where every lever press is reinforced with delivery of 0.1 ml of solution. Food was available ad libitum during this training. Third, after 1 day off, the rats were subjected to a 2 hour session (FR1) for 1 day and a 1 hour session (FR1) the next day, with one lever delivering alcohol (right lever). All of the subsequent sessions lasted 30 min, and two levers were available (left lever: water; right lever: alcohol) until stable levels of intake were reached. Upon completion of this procedure, the animals were allowed to self-administer a 10% (w/v) alcohol solution and water on an FR1 schedule of reinforcement.
# The rats were made dependent by chronic, intermittent exposure to alcohol vapors as previously described (13).
# Effect of carbenoxolone (CBX) on alcohol drinking in rats and mice.
row,Compound,"alcohol self-administration, alcohol dependent rats"
1,"CCCN(CCC)S(=O)(=O)c1ccc(C(=O)O)cc1 [Number 257, Probenecid]",decreases

# Biological target: Pannexin 1 (Homo sapiens, UniProt Q96RD7)
# Test: not given
# Conditions: cited from earlier work
# Chain of Pannexin 1 (Q96RD7 whole entry, species assumed): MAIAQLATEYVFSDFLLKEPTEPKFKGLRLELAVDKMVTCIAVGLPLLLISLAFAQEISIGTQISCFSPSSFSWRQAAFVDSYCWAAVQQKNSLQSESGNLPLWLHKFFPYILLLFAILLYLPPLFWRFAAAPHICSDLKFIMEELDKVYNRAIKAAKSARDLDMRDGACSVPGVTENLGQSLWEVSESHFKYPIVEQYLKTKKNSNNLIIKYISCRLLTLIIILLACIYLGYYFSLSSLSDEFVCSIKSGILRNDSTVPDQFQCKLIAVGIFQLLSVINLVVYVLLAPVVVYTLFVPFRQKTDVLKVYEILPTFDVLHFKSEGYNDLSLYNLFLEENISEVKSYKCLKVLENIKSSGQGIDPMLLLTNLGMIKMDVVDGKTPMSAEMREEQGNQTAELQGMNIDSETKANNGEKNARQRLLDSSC
row,Compound,inhibition of Pannexin 1
1,280: mimetic peptide SRPTEKTIFII [Number 280],inhibited
2,281: mimetic peptide GHGDPLHLEEVKC [Number 281],inhibited
3,282: mimetic peptide SSFSWRQAAFVDS [Number 282],inhibited
4,283: mimetic peptide WRQAAFVDSY [Number 283],inhibited
5,Nc1ncnc2c1ncn2[C@@H]1O[C@H](COP(=O)(O)OP(=O)(O)OP(=O)(O)O)[C@@H](O)[C@H]1O [ATP],inhibits
6,"CCOc1ccc(Nc2ccc(/C(=C3C=C/C(=[N+](/CC)Cc4cccc(S(=O)(=O)[O-])c4)C=C/3C)c3ccc(N(CC)Cc4cccc(S(=O)(=O)[O-])c4)cc3C)cc2)cc1.[Na+] [Number 256, Acid blue 90, Coomassie Brilliant Blue G]",most selective and least detrimental Pannexin 1 inhibitor
7,"CCCN(CCC)S(=O)(=O)c1ccc(C(=O)O)cc1 [Number 257, Probenecid]",inhibits
8,"Nc1ncnc2c1ncn2[C@@H]1O[C@H](COP(=O)(O)OP(=O)(O)OP(=O)(O)O)C(OC(=O)c2ccc(C(=O)c3ccccc3)cc2)C1O (stereo partly shown) [Number 265, 2′(3′)-O-(4-Benzoylbenzoyl)adenosine 5′-triphosphate triethylammonium salt]",inhibit Pannexin 1 more effectively than AYP
9,O=C(O)c1ccccc1Nc1cccc(C(F)(F)F)c1 [flufenamic acid],found to inhibit the channel

# Test system: dependent rats
# Test: not given
# Conditions: systemic glucocorticoid receptor antagonism; cited from earlier work
row,Compound,escalated alcohol drinking and compulsive response for alcohol
1,CC#C[C@]1(O)CC[C@H]2[C@@H]3CCC4=CC(=O)CCC4=C3[C@@H](c3ccc(N(C)C)cc3)C[C@@]21C [mifepristone],blocked

# Test system: inflammasome activation in neurons and astrocytes
# Test: not given
# Conditions: cited from earlier work
row,Compound,inflammasome activation in neurons and astrocytes
1,"CCCN(CCC)S(=O)(=O)c1ccc(C(=O)O)cc1 [Number 257, Probenecid]",prevents

# Test system: 11β-HSD1, 11β-HSD2
# Test: not given
# Conditions: 11β-HSD isozyme specificity per cited reference; cited from earlier work
row,Compound,Specificity
1,O=C(O)CC1(CC(=O)NCc2ccc(F)cc2Cl)CCCC1 [Number 93],11β- HSD1 > 2
2,CC(C)(CC(=O)NC1CC1)CC(=O)N[C@H]1C2CC3CC1C[C@@](O)(C3)C2 [Number 94],11β- HSD1 > 2
3,O=C1CC2(CCN(C(=O)C3(c4ccccc4)CC3)CC2)Oc2ccc(F)cc21 [Number 95],11β- HSD1 > 2
4,O=C(N1CCC2(CCCCC2)C1)C1(c2ccccc2)CC1 [Number 96],11β- HSD1 > 2
5,COc1ccc(C(=O)N2CCC(c3c[nH]c4ccccc34)C2)c(C)c1 (stereo not shown) [Number 97],11β- HSD1 > 2
6,CC(C)(C(=O)N1CCC(c2c[nH]c3ncccc23)C1)c1ccc(Cl)cc1 (stereo not shown) [Number 98],11β- HSD1 > 2
7,O=C(N1CCC(c2c[nH]cn2)CC1)N1CCCc2ccccc21 [Number 99],11β- HSD1 > 2
8,COc1ccc(-c2cnc(N3CCN(C(=O)N4CCC(c5cn[nH]c5)C4)c4ccccc43)nc2)cc1 (stereo not shown) [Number 100],11β- HSD1 > 2
9,CC(C)(C)N1CCN(c2ccc(N3CCN(C(=O)N[C@H]4C5CC6CC4C[C@@](C(N)=O)(C6)C5)c4ccccc43)nc2)CC1 [Number 101],11β- HSD1 > 2
10,COc1cc(C(=O)Nc2ccc(C(=O)N3CCCCC3)c(O)c2)cc(OC)c1OC [Number 105],11β- HSD1 > 2
11,O=C(Nc1ccc(C(=O)N2CCC[C@H]3CCCC[C@@H]32)c2ccccc12)c1ccc(Cl)cc1Cl [Number 106],11β- HSD1 > 2
12,COc1ccc(C(=O)N2CCCC(c3ccccc3)CC2)cc1 (stereo not shown) [Number 107],11β- HSD1 > 2
13,COC1(C)CCCN(S(=O)(=O)c2ccc(C(C)(C)C)cc2)CC1 (stereo not shown) [Number 108],11β- HSD1 > 2
14,CC(C)(C)n1ncc2c1CCCN([C@H]1C3CC4CC1C[C@@](O)(C4)C3)C2=O [Number 109],11β- HSD1 > 2
15,CC1(C)CCN([C@H]2C3CC4CC2C[C@@](O)(C4)C3)C(=O)c2cnn(-c3ccc(Cl)cc3)c21 [Number 110],11β- HSD1 > 2
16,CCN1CCN(C(=O)C23CC4CC(C2)CC(c2ccc(C)cc2)(C4)C3)CC1 [Number 111],11β- HSD1 > 2

row,Compound,Specificity
1,Cc1ccc(-n2nnnc2SCC(=O)C(C)(C)C)c(C)c1 [Number 112],11β- HSD1 > 2
2,O=C(CSc1nnnn1-c1cccc(Cl)c1)c1ccccc1 [Number 113],11β- HSD1 > 2
3,CS(=O)(=O)NCCC(=O)N1CCC(c2cc(C(=O)N3CCC[C@H]4CCCC[C@H]43)cs2)CC1 [Number 114],11β- HSD1 > 2
4,COc1ccc2nc(NS(=O)(=O)c3ccccc3)sc2c1 [Number 115],11β- HSD1 > 2
5,CC(C)(Oc1ccc(Cl)cc1)C(=O)Nc1nnn[nH]1 [Number 116],11β- HSD1 > 2
6,Cc1nc2c(Cl)c(NS(=O)(=O)c3cc(Cl)ccc3Cl)ccc2s1 [Number 117],11β- HSD1 > 2
7,O=C(Nc1ccc2scnc2c1)c1cc(Cl)cc(Cl)c1 [Number 118],11β- HSD1 > 2
8,CN(Cc1cccs1)C(=O)C12CC3CC(CC(C3)C1)C2 [Number 119],11β- HSD1 > 2
9,Cc1ccc(C2(C(=O)N(C)Cc3cccs3)CC2)cc1 [Number 120],11β- HSD1 > 2
10,CN(C)C(=O)c1ccc(COCC(=O)C23CC4CC(CC(C4)C2)C3)cc1 [Number 121],11β- HSD1 > 2
11,COc1cccc(C(=O)CSc2nnc(C)s2)c1 [Number 123],11β- HSD1 > 2
12,Cn1cnnc1SCC(=O)C12CC3CC(CC(C3)C1)C2 [Number 124],11β- HSD1 > 2
13,Cn1c(N2CCN(S(=O)(=O)c3ccc(C(C)(C)C)cc3)CC2)nc2ccccc21 [Number 125],11β- HSD1 > 2
14,Cc1ccc(S(=O)(=O)N2CCN(c3nc4ccccc4n3C)CC2)cc1 [Number 126],11β- HSD1 > 2
15,CC1(C)[C@@H](O)CC[C@]2(C)[C@H]3C(=O)C=C4[C@@](C)(CC[C@@]5(C)CC[C@@]6(C)C[C@@]45OC6=O)[C@]3(C)CC[C@@H]12 [Number 248],11β- HSD1 > 2
16,CC(=O)O[C@H]1CC[C@]2(C)[C@H]3C(=O)C=C4[C@H]5C[C@@](C)(NS(C)(=O)=O)CC[C@]5(C)CC[C@@]4(C)[C@]3(C)CC[C@H]2C1(C)C [Number 251],11β- HSD1 > 2

# Same assay, conditions: cited from earlier work
row,Compound,Specificity
1,O=S1(=O)N=C(NC2CCCCC2)O[C@H]2CCCC[C@H]21 [Number 102],11β- HSD1 > 2
2,CC1(C)OC(N[C@@H](CCO)c2ccc(F)cc2)=NS(=O)(=O)C1(C)C [Number 103],11β- HSD1 > 2
3,O=C(Nc1cccc(C(=O)N2CCC[C@H]3CCCC[C@@H]32)c1)c1ccccc1 [Number 104],11β- HSD1 > 2
